The values below come from US8497260B2, “2-arylbenzothiophene derivatives or pharmaceutically acceptable salts thereof, preparation method thereof, and pharmaceutical composition for the diagnosis or treatment of degenerative brain disease containing the same as active ingredient” (Industry-University Cooperation Foundation Sogang University, priority 2009, dated 2013).

Each structure is given as a SMILES string. pKd, pKi: −log10 of the molar value.

One data set has as its target β-amyloid deposits. To be noted: values from cited documents; read-out: binding affinity (Ki); cited from earlier work.
For data set [1], the target named is T1, β-amyloid (Aβ1-42) fibrils (Homo sapiens, UniProt P05067).
T1 construct: β-Amyloid peptide (Aβ1-42, 1 mg, Bachem); purchased Bachem
Nature of the data set: Dissociation constant (Kd) of [125I]TZDM on β-amyloid fibrils. To be noted: Aβ1-42 fibrils 10 nM, 10% ethanol, room temperature 3 hours, nonspecific binding with 2 μM ThT. As to the method:
(§1) β-Amyloid peptide (Aβ1-42, 1 mg, Bachem) was completely dissolved in 1 mL of DMSO, 9 mL of phosphate buffered saline (PBS) (pH 7.4) was added thereto and well mixed. The resulting mixture was incubated at 37° C. for 60 minutes to form β-amyloid fibrils, 0.5 mL was taken and transferred to each e-tube and placed into a refrigerator maintained at −80° C.
Here, the nonspecific binding was performed using 2 μM Thioflavin T (ThT).

Data set [2] deals with T1, β-amyloid (Aβ1-42) fibrils. Nature of the data set: Inhibitory binding assay against [125I]TZDM on β-amyloid (Aβ1-42) fibrils. To be noted: Aβ1-42 fibrils 10 nM, [125I]TZDM 0.05 nM, 10% ethanol, room temperature 3 hours, nonspecific binding with 2 μM ThT; read-out: Ki, relative binding affinity to [125I]TZDM (112). As to the method: as §1
To determine whether β-amyloid peptide was properly formed into β-amyloid fibrils, 150 μL of 5 μM Thioflavin T (ThT) was added to 50 μL of incubated β-amyloid fibrils, the fluorescence intensity of ThT binding specifically to β-amyloid fibrils at excitation/emission wavelengths (λex/λem), e.g., 450 nm/480 nm, was detected using a spectrometer.
0.850 mL of 10% Ethanol was placed into 12 mm×75 mm borosilicate test tubes, and 50 μL of β-amyloid (Aβ1-42) fibrils were added such that the final reaction concentration became 10 nM. […] Here, the nonspecific binding was performed using 2 μM Thioflavin T (ThT).

T1 sequence (P05067 672-713 limits assumed): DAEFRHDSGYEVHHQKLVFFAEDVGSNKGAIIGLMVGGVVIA

As for `CC(=C(C#N)C#N)c1ccc2cc(N(C)CCF)ccc2c1` [[^18F]FDDNP], the pKi (as a rule, the Ki on a negative log10 scale, so that one unit is a factor of ten) on β-amyloid deposits was 9.92.
As to `[11CH3]Nc1ccc(-c2nc3ccc(O)cc3s2)cc1` [Control Group], the pKi on β-amyloid deposits is 8.55.
For the compound `CN(C)c1ccc(-c2nc3ccc([125I])cc3s2)cc1` [[^125I]TZDM, 2-[4-(N,N-dimethylamino)phenyl]-6-[^125I]iodobenzothiazole], the pKd (as a rule, the negative decadic logarithm of the Kd, by convention in mol/L) in data set [1] is 9.89.
With `CN(C)c1ccc(-c2cc3ccc(OCCF)cc3s2)cc1` [Example 16, 2-[4-(N,N-dimethylamino)phenyl]-6-(2-fluoroethoxy)benzothiophene], the melting point (as a rule, the temperature of the solid-liquid transition) fell in the range of 183.9 to 195.9 °C. Moreover, the pKi in data set [2] was 10.10.
As to `CN(C)c1ccc(-c2cn3cc(I)ccc3n2)cc1` [[^123I/^125I]IMPY], the pKi at β-amyloid deposits was 7.82.
